Reference: patent US12600757B2, “Peptides inhibiting gamma-c-cytokine activity and methods of use” (Bioniz, LLC, priority 2017, dated 2026)
Bridge positions count the residues as written; N and C are the ends. Square brackets hold non-standard residues; d marks the D form. Ends that are not written are not given here. Peptide text beside a SMILES is read from it. R5 = C=CCCC[C@@](C)(N)C(=O)O; S5 = C=CCCC[C@](C)(N)C(=O)O

How the values were obtained:
[1] = Time-course protease stability in simulated intestinal fluid (RP-HPLC); conditions: simulated intestinal fluid (USP), 37° C., over 60 minutes
Source text: To evaluate the gastric stability of the custom peptide derivatives containing one or more intra-peptide hydrocarbon linker elements of the present embodiments a time-course protease stability measurement of unmodified SEQ ID NO: 3 in comparison with a representative custom peptide derivative of SEQ ID NO: 3 containing one hydrocarbon linker element (SEQ ID NO: 39), and another representative custom peptide derivative of SEQ ID NO: 3 containing two hydrocarbon linker elements and certain amino acid positions in the (D) stereochemical configuration (SEQ ID NO: 57) was carried out in simulated intestinal fluid over 60 minutes. […] Simulated intestinal fluid was made according to USP specifications (Test Solutions, United States Pharmacopeia 36). 50 μL of 10 mg/mL peptide was mixed with 450 μL pre-warmed (37° C.) simulated intestinal fluid, and aliquots of the reaction mixture were removed at prescribed time intervals over a time-period of 60 minutes and stopped with 0.1 M HCl. Peptide stability was measured by reversed phase HPLC on a Phenomenex Aeris Peptide column (4.6×250 mm) with settings: 3.6 μm particle size, non-porous; 5.0 μL injection, 0.5 mL/min; mobile phase A: 25% Acetonitrile with 0.1% TFA; mobile phase B: 100% Acetonitrile with 0.1% TFA. The multi-step buffer gradient goes from 100% A to 100% B over 26 minutes. […]

[2] = tested on: IL-15 induction of IFNγ gene transcription; test: IL-15 induced IFNγ gene transcription in NK92 cells (qPCR); assay type: cell-based; conditions: peptide 10 minutes pre-treatment, human IL-15 1 ng/mL for 2 hours
Source text: (§1) The cytokine interferon gamma (IFNγ) represents a useful marker for inflammation in multiple human immune-inflammatory disease states. Transcription of the IFNγ gene is inducible by IL-15, IL-21, the non-γc cytokine IL-12, and other select cytokines. The ability to block cytokine-induced IFNγ transcription therefore represents another useful approach to determine the biological activity of custom peptide derivatives.
(§2) NK92 cells were brought to a quiescent state by PBS washing and culturing in the absence of cytokine for 48 hours. Cells were treated with SEQ ID NO: […] for 10 minutes, and then stimulated with human IL-15, IL-21, or IL-12 at 1 ng/mL for 2 hours. A cytokine only treatment group, and another treatment group where the NK92 cells were left untreated by peptide, and not stimulated by cytokine were also included as control conditions. Following incubation with peptide and cytokine, cells were harvested, RNA was isolated for cDNA generation and used as template for qPCR analysis to quantify IFNγ transcripts.

[3] = tested on: IL-21 induction of IFNγ gene transcription; test: IL-21 induced IFNγ gene transcription in NK92 cells (qPCR); assay type: cell-based; conditions: peptide 10 minutes pre-treatment, human IL-21 1 ng/mL for 2 hours
Source text: as §1, §2

[4] = tested on: IL-12 induction of IFNγ gene transcription; test: IL-12 induced IFNγ gene transcription in NK92 cells (qPCR); assay type: cell-based; conditions: peptide 10 minutes pre-treatment, human IL-12 1 ng/mL for 2 hours
Source text: as §1, §2

[5] = tested on: T-cells in HAM/TSP culture; test: Ex vivo spontaneous T-cell proliferation assay using HAM/TSP patient PBMC; assay type: cell-based, human; conditions: HAM/TSP peripheral blood ex vivo culture
Procedure: Proliferation assays were performed on HAM/TSP patient blood samples with and without the addition of BNZ-γ. These assays evaluated the ability of BNZ-γ to block the function of cytokines, such as IL-2 and IL-15, present in the ex vivo HAM/TSP patient blood culture and prevent spontaneous T-cell proliferation in these samples.
In an ex vivo spontaneous T-cell proliferation assay, PBMC from HAM/TSP patient was cultured at 1×10(6) cells per well of a 96 well plate in RPMI-10% FCS. Increasing concentrations of BNZ-γ peptide were added to each well. As a control, an irrelevant peptide was used in similar fashion. The cells were incubated in a 37° C. CO2 incubator for 3, 4, and 6 days. The amount of 1 uCi of ^3H-thymidine was added to the cells. After an additional 6 hour incubation, cells were harvested their proliferation rate was measured. As indicated in FIG. 5A-FIG. 5D, BNZ-γ peptide inhibits the spontaneous proliferation of T-cells in HAM/TSP culture at a concentration of about 1 ug/ml.
Other immunological markers were additionally measured in this assay. The percentage of the viral specific CD8 cells was measured during the ex vivo culture using viral protein tetramers. The population of CD4+CD25+ cells, a marker of T-cell activation, as well as Ki67 staining, a marker of T-cell proliferation, was monitored in a flow cytometry assay.

IL-2 = test: NK92 cell proliferation assay (WST-1), IL-2 stimulated; assay type: cell-based, human; conditions: NK92 cells, 2 days
Source text: (§3) For each of the six γc-cytokines, indicator cell lines: NK92, a human NK cell line NK92 available by American Type Culture Collection (ATCC) (catalog #CRL-2407), CTLL-2, a murine CD8 T cells line available from ATCC, and PT-18, a murine mast cell line and its subclone PT-18β, is transfected with human IL-2Rβ gene to make the cells responsive to IL-2 and IL-15 (Tagaya et al., 1996, EMBO J. 15:4928-39), and is used to quantitatively determine the γc-cytokine's growth-promoting activity (See Current protocols in Immunology from Wiley and Sons for a methodological reference).
(§4) Once the appropriate doses of the cytokine that yield the 50-70% and 95% maximum response from the indicator cell line is determined, various concentrations (ranging from 1 μM to 10 μM) of the purified or synthesized custom derivative peptide is added to each well containing the cytokine and indicator cells. The reduction in light absorbance at 450 nm is used as an indicator of inhibition of cytokine-stimulated cellular proliferation.
(§5) The human NK cell line NK92 was used for a dose response of SEQ ID NO: 3 against IL-2, IL-15, and IL-21. Cells were cultured with 0.5 nM of recombinant IL-2 in RPMI 10% fetal Calf Serum. […] The growth-responses of the cells were determined 2 days after the introduction of SEQ ID NO: 3 and the cytokine using the WST-1 assay. […]

IL-15 = test: NK92 cell proliferation assay (WST-1), IL-15 stimulated; assay type: cell-based, human; conditions: NK92 cells, 2 days
Source text: as §3, §4, §5

IL-21 = test: NK92 cell proliferation assay (WST-1), IL-21 stimulated; assay type: cell-based, human; conditions: NK92 cells, 2 days
Source text: as §3, §4, §5

IL-4 = test: NK92 cell proliferation assay (WST-1), IL-4 stimulated; assay type: cell-based, human; conditions: NK92 cells, peptide 2.5 μM (70% purity), 2 days
Source text: as §3, §4
as §5, with “to determine the γc-cytokine inhibitory specificity” for “for a dose response”, “3. In this assay the cells” for “3 against IL-2, IL-15, and IL-21. Cells”

IL-9 = test: NK92 cell proliferation assay (WST-1), IL-9 stimulated; assay type: cell-based, human; conditions: NK92 cells, peptide 2.5 μM (70% purity), 2 days
Source text: as §3, §4
as §5, with “to determine the γc-cytokine inhibitory specificity” for “for a dose response”, “3. In this assay the cells” for “3 against IL-2, IL-15, and IL-21. Cells”

[6] = tested on: IL-15 mediated phosphorylation of STAT-5; test: IL-15 mediated phosphorylation of STAT5 in CTLL-2 cells (immunoblot); assay type: cell-based, murine; conditions: anti-phospho-STAT5 immunoblot
Source text: (§6) Similar to the IL-15 induced tyrosine phosphorylation of STAT5 via Jak3, it is well known in the art that Jak-STAT signaling mediated via IL-21 receptor binding preferentially induces Jak-mediated tyrosine phosphorylation of STAT3 (Habib et al. 2003 J Allergy Clin Immunol. 112:1033-45). In accordance with these published data, the ability of SEQ ID NO: 3 to inhibit the tyrosine phosphorylation of the STAT5 molecule by IL-2 or IL-15 in CTLL-2 cells, and the ability of SEQ ID NO: 3 to inhibit the tyrosine phosphorylation of the STAT3 molecule by IL-21 in NK92 cells was examined (results shown in FIG. 4B).
(§7) CTLL-2 cells were stimulated by IL-2 or IL-15 in the presence or absence of SEQ ID NO: 3. CTLL-2 cells were also stimulated by IL-2 or IL-15 in the presence of anti-IL-2 antibody (R & D Systems, Catalog #MAB202, Minneapolis, MN) or anti-IL-15 antibody (R & D Systems, Catalog #MAB247, Minneapolis, MN) as positive controls. NK92 cells were stimulated by IL-21 in the presence or absence of SEQ ID NO: 3. NK92 cells were also stimulated by IL-21 in the presence of anti-IL-21 antibody (Mabtech, Catalog #3540-1-250, Cincinnati, OH) as a positive control. Cytoplasmic proteins were extracted from the cells according to a conventional method as described in Tagaya et al. 1996 EMBO J. 15:4928-39. […]

[7] = tested on: IL-2 mediated phosphorylation of STAT-5; test: IL-2 mediated phosphorylation of STAT5 in CTLL-2 cells (immunoblot); assay type: cell-based, murine; conditions: anti-phospho-STAT5 immunoblot
Source text: as §6, §7

[8] = tested on: IL-21 mediated phosphorylation of STAT-3; test: IL-21 mediated phosphorylation of STAT3 in NK92 cells (immunoblot); assay type: cell-based, human; conditions: anti-phospho-STAT3 immunoblot
Source text: as §6, §7

[9] = peptide 0-0.1 μM (>99% purity), cytokine at 70% proliferation level

## CC[C@H](C)[C@H](NC(=O)[C@]1(C)CCCC=CCCC[C@](C)(NC(=O)[C@@H](Cc2c[nH]cn2)NC(=O)[C@@]2(C)CCCC=CCCC[C@](C)(NC(=O)[C@@H](Cc3ccccc3)NC(=O)[C@@H](CCC(=O)O)NC(=O)[C@@H](CCCCN)NC(=O)[C@H]3CCCN3C(=O)[C@@H](CCCNC(=N)N)NC(=O)[C@@H](CCCNC(=N)N)NC(=O)[C@@H](CCCNC(=N)N)NC(=O)[C@H](N)CCCNC(=N)N)C(=O)N[C@@H](CCC(=O)O)C(=O)N[C@@H](CCCNC(=N)N)C(=O)N[C@@H](Cc3ccccc3)C(=O)N2)C(=O)N[C@@H](C(C)C)C(=O)N[C@@H](CCC(N)=O)C(=O)N[C@@H](CC(C)C)C(=O)N1)C(=O)N[C@H](Cc1c[nH]cn1)C(=O)N[C@H](CCC(N)=O)C(=O)N[C@H](CO)C(=O)N[C@H](CC(C)C)C(=O)N[C@H](CO)C(=O)O [SEQ ID NO: 57, {dR}-{dR}-{dR}-{dR}-{dP}-{dK}-{dE}-{dF}-{S5Ala1}-E-R-F-{R5Ala1}-{dH}-{S5Ala2}-V-Q-L-{S5Ala2}-I-{dH}-{dQ}-{dS}-{dL}-{dS}] (H-[dR][dR][dR][dR][dP][dK][dE][dF][S5]ERF[R5][dH][S5]VQL[S5]I[dH][dQ][dS][dL][dS]-OH; staple 9-13, 15-19; N-terminus and C-terminus assumed)
[1]
  percentage of undigested peptide present in simulated intestinal fluid, compared to the unmodified peptide: greatly enhanced

## {S5Ala1}-P-K-E-{S5Ala1}-L-E-R-F-V-H-L-V-Q-K-{S5Ala2}-I-H-Q-{S5Ala2}-L-S [SEQ ID NO: 83]
[2]
  IL-15 induction of IFNγ gene transcription: inhibition
[3]
  IL-21 induction of IFNγ gene transcription: inhibition
[4]
  non-γc cytokine IL-12 induction of IFNγ gene transcription: did not block

## IKEFLQRFIHIVQSIINTS [BNZ-γ, I-K-E-F-L-Q-R-F-I-H-I-V-Q-S-I-I-N-T-S]
[5]
  percent of live cells by Guava staining: not impacted

## PKEFLERFVHLVQMFIHQSLS (PKEFLERFVHLVQMFIHQSLS) [SEQ ID NO: 3, 21-mer composite peptide of γc-cytokine D-helix regions]
IL-2; peptide 0-10 μM (>99% purity), cytokine at 70% proliferation level
  cellular proliferation stimulated by IL-2 (dose response): not affected
IL-2; peptide 2.5 μM (70% purity)
  cellular proliferation stimulated by IL-2 (inhibitory specificity): not affected
IL-15; [9]
  activity of IL-15 (dose response): potently inhibited
IL-15; peptide 2.5 μM (70% purity)
  activity of IL-15 (inhibitory specificity): significantly reduced
IL-21; [9]
  activity of IL-21 (dose response): potently inhibited
IL-21; peptide 2.5 μM (70% purity)
  activity of IL-21 (inhibitory specificity): significantly reduced
IL-4
  cellular proliferation stimulated by IL-4 (inhibitory specificity): not affected
IL-9
  cellular proliferation stimulated by IL-9 (inhibitory specificity): not affected
[6]
  IL-15 mediated phosphorylation of STAT-5: inhibited
[7]
  IL-2 mediated phosphorylation of STAT-5: but not IL-2 mediated phosphorylation of STAT-5
[8]
  IL-21 mediated phosphorylation of STAT-3: inhibited
